From US20220241378A1, “COMPOSITIONS AND METHODS FOR TREATMENT OF CHRONIC GRANULOMATOUS DISEASE” (priority 2019, published 2022)

Columns and labels:
[1] = tested on: peritoneal polymorphonuclear cells and alveolar macrophages; assay: Phagocytosis and conidiocidal activity of effector phagocytes pulsed with live Aspergillus conidia; type: cell-based, mice; details: 10 and 100 nM 1 hour before 2 hours pulsing with conidia (FIG. 4B)
Protocol: Murine polymorphonuclear cells (PMNs) from C57BL/6 or p47phox-/- uninfected mice were positively selected with magnetic beads (Miltenyi Biotech) from the peritoneal cavity of mice 8 hours after the intraperitoneal injection of 1 ml endotoxin-free 10% thioglycolate solution. On fluorescence-activated cell sorting (FACS) analysis, Gr-1+PMNs were 98% pure and stained positive for the CD11b myeloid marker. Monolayers of plastic-adherent macrophages were obtained, after 2 hours plastic adherence, from lung of C57BL/6 and p47phox-/- uninfected mice. Cells were pre-treated for 1 hour with different concentrations of Tβ4 (10 and 100 nM) before pulsing with A. fumigatus conidia (1:3 cell/fungus ratio for phagocytosis and 10:1 cell/fungus for conidiocidal activity) for 120 min at 37° C. The percentage of CFU inhibition (mean±SD) was determined as described previously (Bellocchio et al., 2004 TLRs govern neutrophil activity in aspergillosis. J Immunol 173:7406-7415).

[2] = tested on: C57BL/6 and p47phox-/- mice infected intranasally with A. fumigatus conidia; assay: Lung inflammation model: C57BL/6 and p47phox-/- mice infected intranasally with A. fumigatus; type: in vivo
Protocol: In vivo models mimicking human pathology such as lung and gut inflammation were prepared. A model of lung inflammation was tested using C57BL/6 and p47phox-/- mice. The mice were infected with A. fumigatus intranasally and treated them with Tβ4 for 7 consecutive days starting a week after the infection. LC3-II (FIG. 1F) and DAPK1 (FIG. 1G) expression were both defective in p47phox-/- mice, but restored by Tβ4 and ablated (LC3-II) upon siTβ4 (FIGS. 10A and 10B). In addition, gut inflammation was tested using the same mouse model. Acute colitis in p47phox-/- mice was initiated by administering […] in drinking water for 7 days followed by 7 days of DSS-free autoclaved water. Subsequently, Tβ4 was therapeutically administered daily for 7 days, after DSS treatment, at the time at which mice started to lose weight. Consistent with previous findings (de Luca et al., 2014), LC3-II (FIG. 1H) and DAPK1 (FIG. 1I) expression were both defective in the colon ofp47phox-/- mice with colitis as opposed to WT mice but restored upon treatment with T134 (FIGS. 1H and 1I). DAPK1 expression in colon lysates of C57BL/6 and p47^phox-/- mice subjected to DSS-induced colitis for a week and treated intraperitoneally with 5 mg/kg Tβ4 for 7 consecutive days after DSS treatment, n=6-10 mice per group. Data are presented as mean ±SD and are representative of two experiments. Mice were categorized as Naive (uninfected or untreated mice) or None (infected mice). For immunoblotting, normalization was performed on mouse β-actin or Gapdh and corresponding pixel density or ratio is depicted. For immunofluorescence, nuclei were counterstained with DAPI. Photographs were taken with a high-resolution microscope (Olympus BX51), 40× and 100× magnification. LC3 mean fluorescence intensity (MFI) was measured with the ImageJ software. In FIGS. 1F-1H, n=6-10 mice per group. Data are presented as mean ±SD and are representative of two experiments. Naïve, uninfected or untreated mice. None, infected mice.
Viable conidia from the A. fumigatus Af293 strain were obtained as described (De Luca et al., 2012). Mice were anesthetized in a plastic cage by inhalation of 3% isoflurane (Forane Abbot) in oxygen before intranasal instillation of 2×10^7 resting conidia/20 μl saline. For survival curves, p47^phox-/- mice were challenged with […] conidia/20 μl saline. Tβ4 was administered intraperitoneally (i.p.) at the dose of 5 mg/kg at an effective dose as described (Badamchian et al., Thymosin beta(4) reduces lethality and down-regulates inflammatory mediators in endotoxin-induced septic shock. Int Immunopharmacol, 2003 3(8): p. 1225-33), every day in concomitance with (days 0→7) or after (days 7→14) infection. DMOG (Merck Millipore) was administered i.p. at the dose of 8 mg/mouse concomitantly to the infection. For Hif1a silencing, each mouse received intranasal administration of 10 mg/kg unmodified siRNA [Duplex name mm.Ri.Hif1a.13.1 (IDT); 5′-[…]-3′; 3′-[…] -5′] and Tmsb4x silencing [Duplex name mm.Ri.Tmsb4x.13.1; 5′-[…]-3′; 3′-[…] -5′], or equivalent dose of nonspecific control siRNA duplex in a volume of 20 μl of duplex buffer (IDT). Intranasal siRNA was given once the day before infection and 1, 3 and 5 days after infection (Iannitti et al., 2013 Hypoxia promotes danger-mediated inflammation via receptor for advanced glycation end products in cystic fibrosis. Am J Respir Crit Care Med 188:1338-1350). It is known that lung-specific siRNA delivery can be achieved by intranasal administration without the use of viral vectors or transfection agents in vivo (Iannitti et al., 2013 Th17/Treg imbalance in murine cystic fibrosis is linked to indoleamine 2,3-dioxygenase deficiency but corrected by kynurenines. Am J Respir Crit Care Med 187:609-620). Mice were sacrificed 7 or 14 days post infection. Fungal burden was determined by qPCR and expressed as conidial equivalents (CE). Lung tissue was aseptically removed and homogenized in 3 ml of sterile saline. […]

[3] = following Tβ4 treatment, thoracic lymph nodes, lung homogenates
[4] = lung homogenates, ELISA (FIG. 4E)

## Thymosin β4 [Tβ4]
[1]
  fungal killing of effector phagocytes (conidiocidal activity): potentiate
  phagocytosis of effector phagocytes: potentiate
[2]; CGD (p47phox-/-) mice, Tβ4 7 days concomitantly to infection (FIG. 2E, 2F)
  HIF-1α protein in lung: restored
[2]; both types of mice (C57BL/6 and p47phox-/-), 5 mg/kg i.p. (FIG. 4A)
  fungal growth in the lung: reduced
[2]; [3]
  pathogenic Th2/Th17/Th9 cell responses: down-regulated
  protective Th1/Treg cell responses: promoted
[2]; infected mice (FIG. 4D)
  NLRP3 expression in lung: down-regulated
[2]; [4]
  IFNy production: reduced
  IL-1β production: reduced
  IL-17A production: reduced
  TNF-α production: reduced
[2]; lungs of Aspergillus-infected mice (FIG. 3C)
  expression of genes of angiogenic signaling (Angpt2, Tie2, Vegfa), remodeling (Fgf2), hormonal regulation (Epo), cell migration (Cxcr4): upregulated
[2]; p47phox-/- mice after Tβ4 administration (FIG. 4C)
  gross lung pathology and histological examination: No signs of inflammatory lung injury and granuloma formation
[2]; p47phox-/- mice, 5 mg/kg Tβ4 (FIG. 8A)
  HIF-1α-dependent glycolytic genes: not increased
[2]; p47phox-/- mice, 5 mg/kg Tβ4 (FIG. 8B)
  Irg1 expression: increased
[2]; p47phox-/- mice, 5 mg/kg i.p. 7 consecutive days starting a week after infection (FIG. 1F)
  LC3-II expression in lung: restored
[2]; p47phox-/- mice, 5 mg/kg i.p. 7 consecutive days starting a week after infection (FIG. 1G)
  DAPK1 expression in lung: restored
